Experimental findings from patent US9464069B2, “1,2-disubstituted cyclobutyl compounds” (LABORATORIOS DEL DR. ESTEVE S.A., priority 2013, dated 2016) are described below.

For the assay, the target named is T1, human sigma 1 receptor (Homo sapiens, UniProt Q99720).
T1 construct: expressed in transfected cells; host or cells: HEK-293
Nature of the assay: Human Sigma 1 Receptor Radioligand Assay. In kind it is binding. The following applies: [3H](+)-pentazocine radioligand 5 nM; transfected HEK-293 membranes; 37° C., 120 minutes. As for the experimental part: Human Sigma 1 Receptor Radioligand Assay
To investigate binding properties of sigma 1 receptor ligands to human sigma 1 receptor, transfected HEK-293 membranes and [^3H](+)-pentazocine (Perkin Elmer, NET-1056), as the radioligand, were used. The assay was carried out with 7 μg of membrane suspension, 5 nM of [^3H](+)-pentazocine in either absence or presence of either buffer or 10 μM Haloperidol for total and non-specific binding, respectively. Binding buffer contained Tris-HCl 50 mM at pH 8. Plates were incubated at 37° C. for 120 minutes. After the incubation period, the reaction mix was then transferred to MultiScreen HTS, FC plates (Millipore), filtered and plates were washed 3 times with ice-cold 10 mM Tris-HCL (pH 7.4). Filters were dried and counted at approximately 40% efficiency in a MicroBeta scintillation counter (Perkin-Elmer) using EcoScint liquid scintillation cocktail.

Counter-ions that a name gives are not always drawn.

T1 sequence (Q99720 whole entry): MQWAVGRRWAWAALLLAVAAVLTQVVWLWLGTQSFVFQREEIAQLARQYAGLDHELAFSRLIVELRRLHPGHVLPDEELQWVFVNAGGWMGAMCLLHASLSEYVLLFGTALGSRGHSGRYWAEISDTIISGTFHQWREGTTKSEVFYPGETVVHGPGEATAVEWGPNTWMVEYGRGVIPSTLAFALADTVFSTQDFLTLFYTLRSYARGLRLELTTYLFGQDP

The Ki is a measure of affinity in units of concentration, obtained from inhibition or displacement. Higher therefore signals lower affinity. `c1ccc(OC[C@@H]2CC[C@@H]2CN2CCCC2)cc1` [Example 1, 1-(((1S,2R)-2-(Phenoxymethyl)cyclobutyl)methyl)pyrrolidine] came in with a Ki of 7.1 nM.
Next, `CC1CCN(C[C@H]2CC[C@H]2COc2ccccc2)CC1` [Example 3, 4-Methyl-1-(((1S,2R)-2-(phenoxymethyl)cyclobutyl)methyl)piperidine]: 2.8 nM; `Clc1ccc(-n2ccc(OC[C@@H]3CC[C@@H]3CN3CCCC3)n2)cc1Cl` [Example 13, 1-(3,4-Dichlorophenyl)-3-(((1R,2S)-2-(pyrrolidin-1-ylmethyl)cyclobutyl)methoxy)-1H-pyrazole]: 16.5 nM; `Cc1cc(OC[C@@H]2CC[C@@H]2CN2CCCC2)nn1-c1ccc(Cl)c(Cl)c1` [Example 15, 1-(3,4-Dichlorophenyl)-5-methyl-3-(((1R,2S)-2-(pyrrolidin-1-ylmethyl)cyclobutyl)methoxy)-1H-pyrazole]: 50.3 nM.
Next, `Cc1cc(OC[C@@H]2CC[C@@H]2CN2CCOCC2)nn1-c1ccc(Cl)c(Cl)c1` [Example 16, 4-(((1S,2R)-2-(((1-(3,4-Dichlorophenyl)-5-methyl-1H-pyrazol-3-yl)oxy)methyl)cyclobutyl)methyl)morpholine]: 178 nM.
Consider `c1ccc(OC[C@@H]2CC[C@@H]2CN2CCOCC2)cc1` [Example 17, 4-(((1S,2R)-2-(Phenoxymethyl)cyclobutyl)methyl)morpholine hydrochloride], for which the inhibition constant Ki was found to be 33.9 nM.
Next, `Clc1ccc(OC[C@@H]2CC[C@@H]2CN2CCCC2)cc1Cl` [Example 18, 1-(((1S,2R)-2-((3,4-Dichlorophenoxy)methyl)cyclobutyl)methyl)pyrrolidine hydrochloride]: 2.3 nM.
Next, `Clc1ccc(OC[C@@H]2CC[C@@H]2CN2CCOCC2)cc1Cl` [Example 19, 4-(((1S,2R)-2-((3,4-Dichlorophenoxy)methyl)cyclobutyl)methyl)morpholine hydrochloride]: 3.7 nM; `CC1CCN(C[C@H]2CC[C@H]2COc2ccc(Cl)c(Cl)c2)CC1` [Example 20, 1-(((1S,2R)-2-((3,4-Dichlorophenoxy)methyl)cyclobutyl)methyl)-4-methylpiperidine hydrochloride]: 4.8 nM; `Cn1nc(OC[C@@H]2CC[C@@H]2CN2CCCC2)cc1C(F)(F)F` [Example 21, 1-Methyl-3-(((1R,2S)-2-(pyrrolidin-1-ylmethyl)cyclobutyl)methoxy)-5-(trifluoromethyl)-1H-pyrazole hydrochloride]: 19.1 nM.
In the case of `Cn1nc(OC[C@@H]2CC[C@@H]2CN2CCOCC2)cc1C(F)(F)F` [Example 22, 4-(((1S,2R)-2-(((1-Methyl-5-(trifluoromethyl)-1H-pyrazol-3-yl)oxy)methyl)cyclobutyl)methyl)morpholine hydrochloride], the affinity, expressed as Ki, was 5.6 nM.
Next, `Cn1nc(C(F)(F)F)cc1OC[C@@H]1CC[C@@H]1CN1CCCC1` [Example 23, 1-Methyl-5-(((1R,2S)-2-(pyrrolidin-1-ylmethyl)cyclobutyl)methoxy)-3-(trifluoromethyl)-1H-pyrazole hydrochloride]: 30.1 nM.
For `Clc1ccc(-n2ccc(OC[C@@H]3CC[C@@H]3CN3CCCC3)n2)cc1Cl` [Example 25, 1-(3,4-Dichlorophenyl)-3-(((1R,2S)-2-(pyrrolidin-1-ylmethyl)cyclobutyl)methoxy)-1H-pyrazole hydrochloride] the value was 20.4 nM; for `Clc1ccc(-n2ccc(OC[C@@H]3CC[C@@H]3CN3CCOCC3)n2)cc1Cl` [Example 26, 4-(((1S,2R)-2-(((1-(3,4-Dichlorophenyl)-1H-pyrazol-3-yl)oxy)methyl)cyclobutyl)methyl)morpholine hydrochloride], 13.4 nM; for `Cc1cc(OC[C@@H]2CC[C@@H]2CN2CCCC2)nn1-c1ccc(Cl)c(Cl)c1` [Example 27, 1-(3,4-Dichlorophenyl)-5-methyl-3-(((1R,2S)-2-(pyrrolidin-1-ylmethyl)cyclobutyl)methoxy)-1H-pyrazole hydrochloride], 72.5 nM.
`Clc1ccc(-n2ccc(OC[C@@H]3CC[C@H]3CN3CCCC3)n2)cc1Cl` [Example 28] showed a Ki of 104 nM.
For `Cc1cc(OC[C@@H]2CC[C@H]2CN2CCCC2)nn1-c1ccc(Cl)c(Cl)c1` [Example 29, 1-(3,4-Dichlorophenyl)-5-methyl-3-(((1R,2R)-2-(pyrrolidin-1-ylmethyl)cyclobutyl)methoxy)-1H-pyrazole] the value was 113 nM; for `Cc1cc(OC[C@@H]2CC[C@H]2CN2CCOCC2)nn1-c1ccc(Cl)c(Cl)c1` [Example 30, 4-(((1R,2R)-2-(((1-(3,4-Dichlorophenyl)-5-methyl-1H-pyrazol-3-yl)oxy)methyl)cyclobutyl)methyl)morpholine], 578 nM.
Next, `Cn1nc(OC[C@@H]2CC[C@H]2CN2CCCC2)cc1C(F)(F)F` [Example 32, 1-Methyl-3-(((1R,2R)-2-(pyrrolidin-1-ylmethyl)cyclobutyl)methoxy)-5-(trifluoromethyl)-1H-pyrazole hydrochloride]: 17.2 nM; `Cn1nc(OC[C@H]2CC[C@H]2CN2CCCC2)cc1C(F)(F)F` [Example 34, 1-Methyl-3-(((1S,2R)-2-(pyrrolidin-1-ylmethyl)cyclobutyl)methoxy)-5-(trifluoromethyl)-1H-pyrazole hydrochloride]: 28.3 nM; `Cc1cc(OC[C@H]2CC[C@@H]2CN2CCOCC2)nn1-c1ccc(Cl)c(Cl)c1` [Example 36, 4-(((1S,2S)-2-(((1-(3,4-Dichlorophenyl)-5-methyl-1H-pyrazol-3-yl)oxy)methyl)cyclobutyl)methyl)morpholine]: 465 nM.
For `Cn1nc(OC[C@H]2CC[C@@H]2CN2CCCC2)cc1C(F)(F)F` [Example 38, 1-Methyl-3-(((1S,2S)-2-(pyrrolidin-1-ylmethyl)cyclobutyl)methoxy)-5-(trifluoromethyl)-1H-pyrazole hydrochloride] the value was 75.8 nM.
Regarding `CCN(CC)C[C@H]1CC[C@@H]1COc1ccccc1` [Example 39, N,N-Diethyl-N-(((1S,2S)-2-(phenoxymethyl)cyclobutyl)methyl)ethanamine hydrochloride], the Ki amounted to 39.9 nM.
